Experimental data published in paper PMC6779124 (ACS infectious diseases, 2018).

Target: Stk1 kinase domain (Staphylococcus aureus, UniProt A0A0H2XGG5)
Assay: […]-ATP autoradiography, autophosphorylation and MBP phosphorylation
Format: biochemical
Settings: […] kinase domain, […] MBP, […] ATP, […] MnCl2, pH […] °C

| Compound | 32P-ATP autoradiography, autophosphorylation and MBP phosphorylation | 32P-ATP autoradiography, autophosphorylation and MBP phosphorylation (inhibitor […]) |
| --- | --- | --- |
| CN1CCN(c2ccc(Nc3nccc(-c4cnn5ncccc45)n3)cc2)CC1 [CAF045, N-(4-(4-Methylpiperazin-1-yl)phenyl)-4-(pyrazolo-[1,5-b]pyridazin-3-yl)pyrimidin-2-amine] | CAF045 and CAF077, displayed an intermediate phenotype with partial Stk1 inhibition | – |
| CN1CCN(c2ccc(Nc3nccc(-c4cnn5ncccc45)n3)cc2F)CC1 [CAF052, N-(3-Fluoro-4-(4-methylpiperazin-1-yl)phenyl)-4-(pyrazolo[1,5-b]pyridazin-3-yl)pyrimidin-2-amine] | – | CAF052 and CAF078 robustly inhibited Stk1 kinase activity like the GW779439X control |
| CN1CCN(c2cccc(Nc3nccc(-c4cnn5ncccc45)n3)c2)CC1 [CAF077, N-(3-(4-Methylpiperazin-1-yl)phenyl)-4-(pyrazolo-[1,5-b]pyridazin-3-yl)pyrimidin-2-amine] | CAF045 and CAF077, displayed an intermediate phenotype with partial Stk1 inhibition | – |
| CN1CCN(c2ccc(Nc3nccc(-c4cnn5ncccc45)n3)cc2C#N)CC1 [CAF078, 2-(4-Methylpiperazin-1-yl)-5-((4-(pyrazolo-[1,5-b]-pyridazin-3-yl)pyrimidin-2-yl)amino)benzonitrile] | CAF052 and CAF078 robustly inhibited Stk1 kinase activity like the GW779439X control | – |
